What is called EC50 is the concentration that produces a half-maximal response. High values mean a less potent agent, low ones a more potent agent.

In this experiment the target is T1, human FXR (Homo sapiens, UniProt Q96RI1).
T1 construct: expressed in transfected cells; host or cells: HEK293 cells stably carrying a 5xGal4-response-element firefly luciferase reporter, transiently transfected with pcDNA3.1-Gal4-FXR
T1 sequence (Q96RI1 262-486 limits assumed): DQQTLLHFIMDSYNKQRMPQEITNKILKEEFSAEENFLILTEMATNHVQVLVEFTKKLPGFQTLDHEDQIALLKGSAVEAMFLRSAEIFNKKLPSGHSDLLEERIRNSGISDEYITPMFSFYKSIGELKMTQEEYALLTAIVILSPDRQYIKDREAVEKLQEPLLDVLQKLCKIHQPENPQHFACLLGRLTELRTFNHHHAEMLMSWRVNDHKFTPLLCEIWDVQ
Put plainly: transient human FXR/Gal4-luciferase reporter assay. Format: cell-based. The conditions noted are these: Gal4-hFXR transfected HEK293 reporter cells; relative to 8 μM GW-4064. An outline of the steps:
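Transient Gal4-hFXR LBD fusion (pcDNA3.1, Lipofectamine, overnight) expressed in a HEK293 reporter line stably bearing five Gal4 elements upstream of firefly luciferase, grown in charcoal/dextran-stripped FBS. Compound dilutions in DMSO incubated with cells overnight at 37° C, 5% CO2, before luciferase readout.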
(Reporter assays use an easily measured gene product as a stand-in for the process of interest.)
Regarding `O=C(O)c1ccc2nc(N3CCC4(C=C(c5c(-c6c(Cl)cccc6Cl)noc5C5CC5)C4)CC3)ccc2c1` [Example 122, 2-(2-(5-Cyclopropyl-3-(2,6-dichlorophenyl)isoxazol-4-yl)-7-azaspiro[3.5]non-1-en-7-yl)quinoline-6-carboxylic acid], the midpoint of the response, the EC50, lay at 40 nM.
Compound `O=C(O)c1ccn2nc(N3CCC4(C=C(c5c(-c6c(Cl)cccc6Cl)noc5C5CC5)C4)CC3)ncc12` [Example 123, 2-(2-(5-Cyclopropyl-3-(2,6-dichlorophenyl)isoxazol-4-yl)-7-azaspiro[3.5]non-1-en-7-yl)pyrrolo[2,1-f][1,2,4]triazine-5-carboxylic acid] displayed a concentration for a half-maximal effect (EC50) of 40 nM. In other words, the double-digit nanomolar range.
`Cc1nc(N2CCC3(C=C(c4c(-c5c(Cl)cccc5Cl)noc4C4CC4)C3)CC2)ccc1C(=O)O` [Example 124, 6-(2-(5-Cyclopropyl-3-(2,6-dichlorophenyl)isoxazol-4-yl)-7-azaspiro[3.5]non-1-en-7-yl)-2-methylnicotinic acid] registered an EC50 of 78 nM.
Compound `Cn1nc(C(=O)O)c2ccc(N3CCC4(C=C(c5c(-c6c(Cl)cccc6Cl)noc5C5CC5)C4)CC3)cc21` [Example 125, 6-(2-(5-Cyclopropyl-3-(2,6-dichlorophenyl)isoxazol-4-yl)-7-azaspiro[3.5]non-1-en-7-yl)-1-methyl-1H-indazole-3-carboxylic acid] showed an EC50 of 96 nM.
`O=C(O)c1nc(C(F)(F)F)n2cc(N3CCC4(C=C(c5c(-c6c(Cl)cccc6Cl)noc5C5CC5)C4)CC3)ccc12` [Example 126, 6-(2-(5-Cyclopropyl-3-(2,6-dichlorophenyl)isoxazol-4-yl)-7-azaspiro[3.5]non-1-en-7-yl)-3-(trifluoromethyl)imidazo[1,5-a]pyridine-1-carboxylic acid] came in with a half-maximal effective concentration (EC50) of 102 nM. The EC50 values of the last two compounds are within 1.5-fold of each other.
Take `Cc1nc(C(=O)O)c2ccc(N3CCC4(C=C(c5c(-c6c(Cl)cccc6Cl)noc5C5CC5)C4)CC3)cn12` [Example 127, 6-(2-(5-Cyclopropyl-3-(2,6-dichlorophenyl)isoxazol-4-yl)-7-azaspiro[3.5]non-1-en-7-yl)-3-methylimidazo[1,5-a]pyridine-1-carboxylic acid]: the midpoint of the response, the EC50, lay at 267 nM.
As to `Cn1c(C(=O)O)cc2ccc(N3CCC4(C=C(c5c(-c6c(Cl)cccc6Cl)noc5C5CC5)C4)CC3)cc21` [Example 128, 6-(2-(5-Cyclopropyl-3-(2,6-dichlorophenyl)isoxazol-4-yl)-7-azaspiro[3.5]non-1-en-7-yl)-1-methyl-1H-indole-2-carboxylic acid], the EC50 was found to be 287 nM.
Under `O=C(O)c1cc2ccc(N3CCC4(C=C(c5c(-c6c(Cl)cccc6Cl)noc5C5CC5)C4)CC3)cc2cn1` [Example 129, 7-(2-(5-Cyclopropyl-3-(2,6-dichlorophenyl)isoxazol-4-yl)-7-azaspiro[3.5]non-1-en-7-yl)isoquinoline-3-carboxylic acid] stands 341 nM; under `O=C(O)COc1cnc2ccc(N3CCC4(C=C(c5c(-c6c(Cl)cccc6Cl)noc5C5CC5)C4)CC3)cc2n1` [Example 130, 2-((7-(2-(5-Cyclopropyl-3-(2,6-dichlorophenyl)isoxazol-4-yl)-7-azaspiro[3.5]non-1-en-7-yl)quinoxalin-2-yl)oxy)acetic acid], 373 nM.
In turn, `C[Si](C)(C)CCOCn1cc(C(=O)O)c2ccc(N3CCC4(C=C(c5c(-c6c(Cl)cccc6Cl)noc5C5CC5)C4)CC3)cc21` [Example 131, 6-(2-(5-Cyclopropyl-3-(2,6-dichlorophenyl)isoxazol-4-yl)-7-azaspiro[3.5]non-1-en-7-yl)-1-((2-(trimethylsilyl)ethoxy)methyl)-1H-indole-3-carboxylic acid] came in with a 50% effective concentration (EC50) of 445 nM.
In the case of `Cc1c(N2CCC3(C=C(c4c(-c5c(Cl)cccc5Cl)noc4C4CC4)C3)CC2)ccc2cc(C(=O)O)cnc12` [Example 132, 7-(2-(5-Cyclopropyl-3-(2,6-dichlorophenyl)isoxazol-4-yl)-7-azaspiro[3.5]non-1-en-7-yl)-8-methylquinoline-3-carboxylic acid], the response was half-maximal at 958 nM (EC50). This EC50 lies about 2.2-fold higher than the previous one.
In the case of `Cn1nc(N2CCC3(C=C(c4c(-c5c(Cl)cccc5Cl)noc4C4CC4)C3)CC2)c2ccc(C(=O)O)cc21` [Example 133, 3-(2-(5-Cyclopropyl-3-(2,6-dichlorophenyl)isoxazol-4-yl)-7-azaspiro[3.5]non-1-en-7-yl)-1-methyl-1H-indazole-6-carboxylic acid], the EC50 is 1170 nM. The EC50 values of the last two compounds are within 1.5-fold of each other.
For the compound `Cn1nc(N2CCC3(C=C(c4c(-c5ccccc5C(F)(F)F)noc4C4CC4)C3)CC2)c2ccc(C(=O)O)cc21` [Example 134, 3-(2-(5-Cyclopropyl-3-(2-(trifluoromethyl)phenyl)isoxazol-4-yl)-7-azaspiro[3.5]non-1-en-7-yl)-1-methyl-1H-indazole-6-carboxylic acid], the EC50 came out at 3310 nM. This EC50 is about 2.8-fold higher than that of the compound before.
For `O=C(O)c1ccn2nc(N3CCC4(C=C(c5c(-c6ccccc6C(F)(F)F)noc5C5CC5)C4)CC3)ncc12` [Example 135, 2-(2-(5-Cyclopropyl-3-(2-(trifluoromethyl)phenyl)isoxazol-4-yl)-7-azaspiro[3.5]non-1-en-7-yl)pyrrolo[2,1-f][1,2,4]triazine-5-carboxylic acid] the value was 87 nM.
Under `O=C(O)c1cc(F)c2nc(N3CCC4(C=C(c5c(-c6c(F)cccc6Cl)noc5C5CC5)C4)CC3)sc2c1` [Example 136, 2-(2-(3-(2-Chloro-6-fluorophenyl)-5-cyclopropylisoxazol-4-yl)-7-azaspiro[3.5]non-1-en-7-yl)-4-fluorobenzo[d]thiazole-6-carboxylic acid] stands 37 nM; under `O=C(O)c1cc(F)c2nc(N3CCC4(C=C(c5c(-c6c(F)cccc6F)noc5C5CC5)C4)CC3)sc2c1` [Example 137, 2-(2-(5-Cyclopropyl-3-(2,6-difluorophenyl)isoxazol-4-yl)-7-azaspiro[3.5]non-1-en-7-yl)-4-fluorobenzo[d]thiazole-6-carboxylic acid], 155 nM; under `O=C(O)c1cc(F)c2nc(N3CCC4(C=C(c5c(-c6cccnc6C(F)(F)F)noc5C5CC5)C4)CC3)sc2c1` [Example 138, 2-(2-(5-Cyclopropyl-3-(2-(trifluoromethyl)pyridin-3-yl)isoxazol-4-yl)-7-azaspiro[3.5]non-1-en-7-yl)-4-fluorobenzo[d]thiazole-6-carboxylic acid], 319 nM.
`O=C(O)c1cc(F)c2nc(N3CCC4(C=C(c5c(-c6cnccc6C(F)(F)F)noc5C5CC5)C4)CC3)sc2c1` [Example 139, 2-(2-(5-Cyclopropyl-3-(4-(trifluoromethyl)pyridin-3-yl)isoxazol-4-yl)-7-azaspiro[3.5]non-1-en-7-yl)-4-fluorobenzo[d]thiazole-6-carboxylic acid] gave an EC50 of 482 nM.
Under `O=C(O)c1ccc2nc(N3CCC4(C=C(c5c(-c6ccccc6OC(F)(F)F)noc5C5CC5)C4)CC3)ccc2c1` [Example 140, 2-(2-(5-Cyclopropyl-3-(2-(trifluoromethoxy)phenyl)isoxazol-4-yl)-7-azaspiro[3.5]non-1-en-7-yl)quinoline-6-carboxylic acid] stands 133 nM; under `Cn1cc(C(=O)O)c2ccc(N3CCC4(C=C(c5c(-c6ccccc6C(F)(F)F)noc5C5CC5)C4)CC3)cc21` [Example 141, 6-(2-(5-Cyclopropyl-3-(2-(trifluoromethyl)phenyl)isoxazol-4-yl)-7-azaspiro[3.5]non-1-en-7-yl)-1-methyl-1H-indole-3-carboxylic acid], 142 nM.

(Values after US11078198B2 (BRISTOL-MYERS SQUIBB COMPANY, priority 2017, dated 2021).)
